Experimental data reported in article PMC8308870 (2021).

How the values were obtained:
[1] = tested on: h-Telo (CD) (DNA, G4) GGGTTAGGGTTAGGGTTAGGG; test: CD titration; settings: 10 mM K+, 90 mM LiCl, 20 mM lithium cacodylate, 20 °C, 10 µM DNA, 0–25 eq
[2] = tested on: k-RAS (CD) (DNA, G4) AGGGCGGTGTGGGAAGAGGGA; test: CD titration; settings: 50 mM K+, 50 mM LiCl; 20 mM lithium cacodylate, 20 °C; 10 µM DNA, 0–25 eq; ellipticity decrease, 295 nm band
[3] = tested on: h-Telo (CD) (DNA, G4) GGGTTAGGGTTAGGGTTAGGG; test: CD melting (290 nm); settings: 10 mM K+, 90 mM LiCl; 20 mM lithium cacodylate, pH 7.2; 10 µM DNA; compound 5 eq
[4] = tested on: h-Telo (FRET) (DNA, G4) GGGTTAGGGTTAGGGTTAGGG; test: FRET melting; settings: 60 mM K+, pH 7.4, 0.2 µM DNA
[5] = tested on: k-RAS (CD) (DNA, G4) AGGGCGGTGTGGGAAGAGGGA; test: CD melting (265 nm); settings: 50 mM K+, 50 mM LiCl; 20 mM lithium cacodylate, pH 7.2; 10 µM DNA; compound 5 eq
[6] = tested on: k-RAS (FRET) (DNA, G4) AGGGCGGTGTGGGAAGAGGGA; test: FRET melting; settings: 60 mM K+, pH 7.4, 0.2 µM DNA
[7] = tested on: c-MYC (Pu27) (DNA, G4) TGGGGAGGGTGGGGAGGGTGGGGAAGG; test: CD melting (265 nm); settings: 100 mM LiCl, no K+ listed; 20 mM lithium cacodylate, pH 7.2; 10 µM DNA; compound 5 eq
[8] = tested on: Pu27mut (DNA, G4) TGGGGAGGGTGGAAAGGGTGGGGAAGG; test: CD titration; settings: 10 mM K+, 2 mM Mg2+, 10 mM (NH4)2SO4; ThermoPol buffer (20 mM Tris-HCl, 0.1% Triton X-100), pH 8.8; parallel G4 induced
[9] = tested on: T-Loop (t-Loop) (DNA, hairpin) TATAGCTATATTTTTTTATAGCTATA; test: FRET melting; settings: 60 mM K+, potassium cacodylate, pH 7.4, 0.2 µM DNA
[10] = cacodylate, compound 5 µM (25 eq)

Row | binding [2] | ΔTm [3] [°C] | ΔTm [5] [°C] | ΔTm [7] [°C] | binding ([1]; topology maintained) | SMILES | other results
1 | yes | 14.9 ± 0.2 | – | – | – | C[n+]1cc(NC(=O)c2cccc(C(=O)Nc3c[n+](C)cc4ccccc34)n2)c2ccccc2c1 | binding ([1]; hybrid to antiparallel switch): yes; ΔTm ([4]; potassium cacodylate, compound 25 eq (5 µM)): 22.7 ± 0.2 °C
2 | – | – | > 40 | > 40 | – | C[n+]1cc(NC(=O)c2cccc(C(=O)Nc3cc4ccccc4[n+](C)c3)n2)cc2ccccc21 | binding ([1]; hybrid to parallel switch): yes; ΔTm ([6]; potassium cacodylate, compound 5 eq (1 µM)): 35.6 ± 0.3 °C; binding [8]: yes; ΔTm ([9]; compound 5 eq (1 µM)): 6.5 ± 0.1 °C
3 | yes | – | – | – | yes | C[n+]1ccc(NC(=O)c2cccc(C(=O)Nc3cc[n+](C)c4ccccc34)n2)c2ccccc21 | –
4 | yes | 4.4 ± 0.2 | 12.2 ± 0.2 | 5.3 ± 0.1 | yes | C[n+]1ccc2c(NC(=O)c3cccc(C(=O)Nc4cccc5c[n+](C)ccc45)n3)cccc2c1 | ΔTm ([9]; compound 25 eq (5 µM)): 1.8 ± 0.2 °C
5 | – | – | – | – | – | O=C(Nc1ccc2ccccc2n1)c1cccc(C(=O)Nc2ccc3ccccc3n2)n1 | ΔTm [4, 10]: < 0.5 °C
6 | – | – | – | – | – | O=C(Nc1cncc2ccccc12)c1cccc(C(=O)Nc2cncc3ccccc23)n1 | ΔTm [6, 10]: < 0.5 °C
